Data published in patent publication US4820695A, “C-20-dihydro-deoxy-(cyclic amino)-derivatives of macrolide antibiotics” (priority 1987, dated 1989).
Values after ≈ are worked out from the molar mass of the structure shown. Like-named read-outs stand apart in the source and are kept apart here.

Assays:
Staphyloccus aureus X1.1 = assay: MIC, standard agar-dilution assay (Table IX); type: cell-based, Staphylococcus aureus
[1] = test system: Staphylococcus aureus V41; assay: MIC, standard agar-dilution assay (Table IX); type: cell-based; conditions: Staphylococcus aureus V41, Penicillin-resistant strain
[2] = test system: Staphylococcus aureus X400; assay: MIC, standard agar-dilution assay (Table IX); type: cell-based; conditions: Staphylococcus aureus X400, Methicillin-resistant strain
[3] = test system: Staphylococcus aureus S13E; assay: MIC, standard agar-dilution assay (Table IX); type: cell-based
[4] = test system: Staphylococcus epidermidis EPI1; assay: MIC, standard agar-dilution assay (Table IX); type: cell-based; conditions: Staphylococcus epidermidis EPI1, agar-dilution
[5] = test system: Staphylococcus epidermidis 222; assay: MIC, standard agar-dilution assay (Table IX); type: cell-based
[6] = test system: Streptococcus pneumoniae Park I; assay: MIC, standard agar-dilution assay (Table IX); type: cell-based; conditions: Streptococcus pneumoniae Park I, agar-dilution
[7] = test system: Streptococcus Group D X66; assay: MIC, standard agar-dilution assay (Table IX); type: cell-based
[8] = test system: Streptococcus Group D 2041; assay: MIC, standard agar-dilution assay (Table IX); type: cell-based
[9] = test system: Haemophilus influenzae C.L.; assay: MIC, standard agar-dilution assay (Table IX); type: cell-based; conditions: Ampicillin-sensitive strain
[10] = test system: Haemophilus influenzae 76; assay: MIC, standard agar-dilution assay (Table IX); type: cell-based; conditions: Haemophilus influenzae 76, Ampicillin-resistant strain
Escherichia coli N10 = assay: MIC, standard agar-dilution assay (Table IX); type: cell-based
Escherichia coli EC14 = assay: MIC, standard agar-dilution assay (Table IX); type: cell-based
Escherichia coli TEM = assay: MIC, standard agar-dilution assay (Table IX); type: cell-based
Klebsiella X26 = assay: MIC, standard agar-dilution assay (Table IX); type: cell-based
[11] = test system: Mycoplasma gallisepticum 29C; assay: MIC, broth-dilution microtiter test (Table X); type: cell-based
Description: (§1) The MIC's in Table X were obtained using conventional broth-dilution microtiter tests.

[12] = test system: Mycoplasma hyopneumoniae S5972; assay: MIC, broth-dilution microtiter test (Table X); type: cell-based
Description: as §1

Mycoplasma hyorhinis 29E = assay: MIC, broth-dilution microtiter test (Table X); type: cell-based
Description: as §1

Mycoplasma synoviae 40A = assay: MIC, broth-dilution microtiter test (Table X); type: cell-based
Description: as §1

[13] = test system: Pasteurella hemolytica 22C; assay: MIC, broth-dilution microtiter test (Table X); type: cell-based
Description: as §1

[14] = test system: Pasteurella multocida 17E; assay: MIC, broth-dilution microtiter test (Table X); type: cell-based; conditions: Bovine isolate
Description: as §1

[15] = test system: Pasteurella multocida 60A; assay: MIC, broth-dilution microtiter test (Table X); type: cell-based; conditions: Avian isolate
Description: as §1

Staphylococcus aureus = assay: MIC, broth-dilution microtiter test (Table X); type: cell-based
Description: as §1

Streptococcus sp. 19F = assay: MIC, broth-dilution microtiter test (Table X); type: cell-based
Description: as §1

[16] = test system: Streptococcus pyogenes C203; assay: ED50 in mice experimentally infected with S. pyogenes C203 (Table XI); type: in vivo; conditions: Streptococcus pyogenes, doses given 1 and 4 hours postinfection, read-out: ED50
Procedure: The C-20 modified derivatives of this invention have shown in vivo antimicrobial activity against experimentally-induced infections in laboratory animals. When two doses of test compound were administered to mice experimentally infected with S. pyogenes C203, the activity observed was measured as an ED50 value [effective dose in mg/kg to protect 50% of the test animals: see Warren Wick, et al., J. Bacteriol. 81, 233-235 (1961)].
^a mg/kg × 2; doses given 1 and 4 hours postinfection

Pasteurella multocida = assay: Pasteurella infection in one-day-old chicks, subcutaneous administration (Table XII); type: in vivo; conditions: Administered subcutaneously, 30 mg/kg × 2, 1 and 4 hours post-challenge
Procedure: Many of the C-20 modified derivatives of this invention have also shown in vivo antibacterial activity against infections induced by gram-negative bacteria. Tables XII and XIII summarize the results of tests in which illustrative compounds were evaluated against a Pasteurella infection in one-day-old chicks. The compounds were administered parenterally or orally after challenge of the chicks with Pasteurella multocida (0.1 ml of a 10^-4 dilution of a twenty-hour tryptose broth culture of an avian P. multocida given subcutaneously). In these tests, unless indicated otherwise, all non-medicated infected chicks died within 24 hours of Pasteurella challenge. In the tests summarized in Table XII, the compounds were administered by subcutaneous injection at a dosage of 30 mg/kg, 1 and 4 hours post-challenge of the chicks with P. multocida. In the tests summarized in Table XIII the compounds were administered in medicated drinking water (at a level of 2 g/gal) available from 4 to 20 hours prior to challenge of the chicks with P. multocida and during the 3 -day test period.
^a Administered subcutaneously; 30 mg/kg × 2

[17] = Titratable groups in 66% aqueous DMF (Tables XIV-XVI); type: physicochemical
Description: ^c Run in 66% aqueous DMF
^d Run in 66% aqueous DMF

[18] = test system: Streptococcus pyogenes C203; assay: MIC, standard agar-dilution assay (Table IX); type: cell-based

With CCC1OC(=O)CC(O)C(C)C(OC2OC(C)C(O)C(N(C)C)C2O)C(CCN2CCCCCCCCCCCC2)CC(C)C(=O)C=CC(C)=CC1COC1OC(C)C(O)C(OC)C1OC (stereo not drawn) [Compound D10, 20-DH-DO-20-(azacyclotridecan-1-yl)desmycosin] the MIC (Staphyloccus aureus X1.1; Staphylococcus aureus, read-out: MIC) was 0.25 µg/mL (≈ 0.266 µM), the MIC ([1]; read-out: MIC) was 0.25 µg/mL (≈ 0.266 µM) and the MIC ([2]; read-out: MIC) was 0.25 µg/mL (≈ 0.266 µM). The MIC ([3]; Staphylococcus aureus, S13E) was 0.25 µg/mL (≈ 0.266 µM), the MIC ([4]; read-out: MIC) was 0.25 µg/mL (≈ 0.266 µM) and the MIC ([5]; read-out: MIC) was 0.12 µg/mL (≈ 0.128 µM). The MIC ([6]; read-out: MIC) was 0.25 µg/mL (≈ 0.266 µM), the MIC ([7]; read-out: MIC) was 4 µg/mL (≈ 4.26 µM) and the MIC ([8]; GROUPD2041, read-out: MIC) was 4 µg/mL (≈ 4.26 µM). The MIC ([9]; read-out: MIC) was 4 µg/mL (≈ 4.26 µM), the MIC ([10]; read-out: MIC) was 8 µg/mL (≈ 8.52 µM) and the MIC (Escherichia coli N10; read-out: MIC) was 32 µg/mL (≈ 34.1 µM). It also gave an MIC (Escherichia coli EC14; read-out: MIC) of 64 µg/mL (≈ 68.1 µM), an MIC (Escherichia coli TEM; read-out: MIC) of 8 µg/mL (≈ 8.52 µM) and an MIC (Klebsiella X26; read-out: MIC) of 16 µg/mL (≈ 17 µM). The MIC ([11]; Mycoplasmoides gallisepticum, read-out: MIC) was 0.097 µg/mL (≈ 0.103 µM), the MIC ([12]; Mesomycoplasma hyopneumoniae, read-out: MIC) was 0.78 µg/mL (≈ 0.83 µM) and the MIC (Mycoplasma hyorhinis 29E; read-out: MIC) was 12.5 µg/mL (≈ 13.3 µM). The MIC (Mycoplasma synoviae 40A; Mycoplasmopsis synoviae, read-out: MIC) was at most 0.048 µg/mL, the MIC ([13]; read-out: MIC) was 1.56 µg/mL (≈ 1.66 µM) and the MIC ([14]; read-out: MIC) was 1.56 µg/mL (≈ 1.66 µM). The MIC ([15]; read-out: MIC) was 3.12 µg/mL (≈ 3.32 µM), the MIC (Staphylococcus aureus; read-out: MIC) was 0.39 µg/mL (≈ 0.415 µM) and the MIC (Streptococcus sp. 19F; read-out: MIC) was 0.78 µg/mL (≈ 0.83 µM). For the same compound, the ED50 ([16]; C203, Oral) was 68 mg/kg, the ED50 ([16]; C203, sc, Subcutaneous) was under 10 mg/kg and the “Number of Deaths/Number Treated” value (Pasteurella multocida) was 10/10. The pKa ([17]; Titratable groups) was 9.5 and the pKa ([17]; Titratable groups (first value)) was 8.

With CCC1OC(=O)CC(O)C(C)C(OC2OC(C)C(O)C(N(C)C)C2O)C(CCN2CCC(C)CC(C)(C)C2)CC(C)C(=O)C=CC(C)=CC1COC1OC(C)C(O)C(OC)C1OC (single isomer, unassigned) [Compound D24, 20-DH-DO-20-(3,3,5-Trimethylhexahydroazepin-1-yl)desmycosin] the MIC (Staphyloccus aureus X1.1) was 0.5 µg/mL (≈ 0.557 µM), the MIC [1] was 0.5 µg/mL (≈ 0.557 µM) and the MIC [2] was 1 µg/mL (≈ 1.11 µM). It also gave an MIC ([3]; Staphylococcus aureus S13E, agar-dilution) of 0.5 µg/mL (≈ 0.557 µM), an MIC [4] of 0.5 µg/mL (≈ 0.557 µM) and an MIC [5] of 0.25 µg/mL (≈ 0.279 µM). The MIC [18] was 0.25 µg/mL (≈ 0.279 µM), the MIC [6] was 1 µg/mL (≈ 1.11 µM) and the MIC [7] was 4 µg/mL (≈ 4.46 µM). For the same compound, the MIC [8] was 8 µg/mL (≈ 8.92 µM), the MIC [9] was 32 µg/mL (≈ 35.7 µM) and the MIC [10] was 8 µg/mL (≈ 8.92 µM). It also gave an MIC (Escherichia coli N10) of 64 µg/mL (≈ 71.3 µM), an MIC (Escherichia coli EC14) of 64 µg/mL (≈ 71.3 µM) and an MIC (Escherichia coli TEM) of 32 µg/mL (≈ 35.7 µM). It also gave an MIC (Klebsiella X26) of 128 µg/mL (≈ 143 µM), an MIC [11] of 0.39 µg/mL (≈ 0.435 µM) and an MIC [12] of 0.78 µg/mL (≈ 0.869 µM). For the same compound, the MIC (Mycoplasma hyorhinis 29E) was 25 µg/mL (≈ 27.9 µM), the MIC (Mycoplasma synoviae 40A) was 0.097 µg/mL (≈ 0.108 µM) and the MIC [13] was 6.25 µg/mL (≈ 6.97 µM). For the same compound, the MIC [14] was 12.5 µg/mL (≈ 13.9 µM), the MIC [15] was 6.25 µg/mL (≈ 6.97 µM) and the MIC (Staphylococcus aureus) was 3.12 µg/mL (≈ 3.48 µM). For the same compound, the MIC (Streptococcus sp. 19F) was 3.12 µg/mL (≈ 3.48 µM), the “Number of Deaths/Number Treated” value (Pasteurella multocida) was 2/10 and the “Titratable groups” value [17] was 9.4. For the same compound, the “Titratable groups (first value)” value [17] was 7.9.
